Results from PMC6804243, “Small-Molecule Inhibition of UBE2T/FANCL-Mediated Ubiquitylation in the Fanconi Anemia Pathway” (ACS Chemical Biology, 2019).
Entries after “also recorded” stand apart in the source; their conditions may differ. Where two headings read alike, the source gives them in different places.

Assays:
UBE2D1 / GST-RNF8 = system: T1, UBE2D1 / GST-RNF8; assay: Gel-based ubiquitylation assay, E2 = UBE2D1, E3 = GST-RNF8; assay type: biochemical; conditions: 10 min at 37 °C, Western blot
T1 construct: His6 (N); made in house; host or cells: E. coli Rosetta (DE3)
Procedure: (§1) Figure 2 Gel-based ubiquitylation assays with confirmed HTRF hits. […] Western blots (WB) probed for GST or biotin as labeled. Reactions contained 20 nM His6-UBE1, 50 nM E2, 250 nM GST-E3, 500 nM biotinylated ubiquitin: (a) E2 = UBE2T, E3 = GST-FANCLRING, 30 min of reaction at 37 °C; (b) E2 = UBE2D1, E3 = GST-FANCLRING, 30 min of reaction at 37 °C; and (c) E2 = UBE2D1, E3 = GST-RNF8, 10 min of reaction at 37 °C.
A further ubiquitylation assay was performed with an alternative E3, RNF8, which also plays important roles in the DDR.[14] In contrast to GST-FANCLRING, long polyubiquitin chains were attached to GST-RNF8 by UBE2D1 (Figure 2c).
(§2) Purified protein was concentrated using a Vivaspin-6 concentrator with a 10 kDa MW cut-off (Vivascience) and flash-frozen in small aliquots for storage at […]
(§3) Cy5 labelling of ubiquitin. To a 5 mg/mL solution of recombinant human ubiquitin (Boston Biochem) in 0.1 M NaHCO3 pH 8.3, was added a 4-fold molar excess of Cyanine5 NHS ester (Lumiprobe). The reaction was incubated at 23 °C for 4 hours in the dark. The protein was separated from unreacted dye by passage through a PD-10 desalting column (GE Healthcare) equilibrated with PBS. Purified protein was concentrated using a Vivaspin-6 concentrator with a 3 kDa MW cut-off (Vivascience) and flash-frozen in small aliquots for storage […]
(§4) Homogeneous Time-Resolved Fluorescence (HTRF) Assay. GST-FANCLRING (200 nM) was incubated with anti-GST Tb (CisBio, #61GSTTL) (2.5 ng final) at room temperature for 30 minutes in assay buffer (50 mM Tris-HCl pH 8.0, 1 mM TCEP, 5 mM MgCl2, 0.005% Tween-20). Meanwhile, 10 μL of UBE2T in assay buffer (or assay buffer alone for no enzyme controls) was incubated in a white 384-well plate (Corning) with 20 nL DMSO or compound in DMSO. After 30 minutes, the GST-RINGRING solution was added to an equal volume solution containing His-UBE1 (Boston Biochem) (16 nM), Cy5-ubiquitin (400 nM), ATP (0.8 mM) in assay buffer. 10 μL of this solution was immediately added to each well of the 384 -well plate containing UBE2T or buffer. F inal concentrations: His -UBE1 (4 nM), UBE2T (6 nM), GST -RINGRING (50 nM), Cy5-ubiquitin (100 nM), ATP (0.2 mM), compound (10 or 20 μM) in 0.1 %
(§5) (v/v) DMSO. After a 10 minute incubation at 23 °C, 5 µL of a 50 mM EDTA solution were added to each well to stop the reaction. Signal was measured at λEx 340 nm and λEm 665 nm and 620 nm using a PHERAstar FS plate reader
(§6) (BMG Labtech). A ratio was calculated as [λEm(665)/λEm(620)] × 104 for each well and this was used to determine the percent inhibition for test compounds.
(§7) Gel-based ubiquitylation assays. Assays were carried out in a total volume of 10 µL containing 20 nM His6-UBE1 (Boston Biochem), 50 nM UBE2T, 250 nM GST-E3 and 500 nM biotinylated ubiquitin (Boston Biochem) in buffer (50 […]
(§8) Reaction mixtures were incubated for the indicated time at 37 °C and stopped by the addition of 2X reducing SDS -PAGE sample buffer, separated on NuPAGE Novex 4 –12% Bis/Tris gradient gels (Invitrogen) and visualized by Western blotting using the indicated antibodies (Table S3).
Cell culture. U2OS cells were cultured at 37 °C in a humidified atmosphere and 5% (v/v) CO2 in Dulbecco's Modified Eagle Medium (DMEM; Sigma-Aldrich) supplemented with 10% (v/v) fetal bovine serum (FBS), 100 units/ml of penicillin, […] of streptomycin and 292 μg/mL L-glutamine.
Cell extract preparation and immunoblotting. U2OS cells were lysed in buffer containing 50 mM Tris-HCl pH 7.5, 2% SDS, 10 mM NEM, cocktail protease inhibitor (Roche) and phosphatase inhibitor cocktail followed by sonication 100 µg of extracts were boiled for 5 mins at 95 °C in 5X loading buffer and loaded onto NuPAGE Novex 4–12% Bis/Tris gradient gels
(Invitrogen), or NuPAGE Novex 3-8% Tris/Acetate gradient gels (Invitrogen) for detection of mUb-FANCD2. After separation the gels were transferred to PVDF and the membranes were blocked with Tris-buffered saline containing 0.1% (v/v) Tween-20 (TBST) and 5% (v/v) bovine serum albumin (BSA) and […]

UBE1 = system: T2, UBE1; assay: Gel-based ubiquitylation assay (UBE2T/GST-FANCLRING), autoubiquitylation of UBE1; assay type: biochemical; conditions: compound 100 μM; Western blot probed for biotin
T2 construct: purchased Boston Biochem

UBE2D1 / GST-FANCLRING = system: T3, UBE2D1 / GST-FANCLRING; assay: Gel-based ubiquitylation assay, E2 = UBE2D1, E3 = GST-FANCLRING; assay type: biochemical; conditions: 30 min at 37 °C, Western blot
T3 construct: the RING domain (residues 275–375) of the E3 FANCL (FANCLRING); His6 (N); made in house; host or cells: E. coli Rosetta (DE3)
Procedure: as §1
(§9) In order to explore the selectivity of CU1, CU2, CU9, CU10, and CU12, we conducted a counter-screen against other E2 and E3 combinations. Since members of the UBE2D family of E2s are known to ubiquitylate multiple substrates in vitro,[13] a ubiquitylation assay featuring UBE2D1 and GST-FANCLRING was performed. With UBE2D1, multiple ubiquitylated GST-FANCLRING species could be observed (Figure 2b).
as §2, §3, §4, §5, §6, §7, §8
Cell culture. […]

[1] = molecular target: T4, UBE2T/FANCLRING (ubiquitylation of GST-FANCLRING) (Homo sapiens, UniProt Q9NW38); assay: biochemical
T4 sequence (Q9NW38 275-375 limits assumed): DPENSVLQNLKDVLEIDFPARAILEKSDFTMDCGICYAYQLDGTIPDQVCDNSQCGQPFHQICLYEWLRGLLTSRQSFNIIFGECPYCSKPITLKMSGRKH
Text: To identify small-molecule inhibitors of the FA pathway, we developed a high-throughput screen (HTS) compatible assay based on the FA ubiquitylation cascade (see Figure 1a, as well as Figure S1 in the Supporting Information). Given the complexity of the full FA ubiquitylation cascade, we constructed a simplified ubiquitylation reaction that would be robust for HTS purposes yet still provide many relevant protein species for small molecules to interact with. The recombinant protein assay developed used homogeneous time-resolved fluorescence (HTRF) and contained Cy5-labeled ubiquitin, the E1 enzyme UBE1, the E2 enzyme UBE2T, and the RING domain (residues 275–375) of the E3 FANCL (FANCLRING). FANCLRING was used as a surrogate substrate for ubiquitylation in the absence of the FA core and FANCD2/FANCI complexes.
Figure 1 Screening for inhibitors of the FA pathway. (a) Schematic of the HTRF ubiquitylation assay. Ubiquitylation of GST-tagged E3 (FANCLRING) by the E2 (UBE2T) places Cy5-labeled ubiquitin in close proximity to the anti-GST Tb cryptate. Excitation of the Tb cryptate donor results in FRET to the Cy5 acceptor. Simultaneous monitoring of the donor emission (620 nm) and acceptor emission (665 nm) allows for determination of the 665/620 ratio. (b) HTRF screen results showing average inhibition (n = 2) produced by compounds at 20 μM (in-house diversity library; 10 111 compounds) and 10 μM (Selleckchem epigenetic library; 119 compounds). Numbers given in parentheses represent the number of compounds per inhibition threshold.
as §2, §3, §4, §5, §6
Gel-based ubiquitylation assays. Assays were carried out in a total volume of 10 µL containing 20 nM His6-UBE1 (Boston Biochem), 50 nM UBE2T, 250 nM GST-E3 and 500 nM biotinylated ubiquitin (Boston Biochem) in buffer (50

UBE2T / GST-FANCLRING = system: T5, UBE2T / GST-FANCLRING; assay: Gel-based ubiquitylation assay, E2 = UBE2T, E3 = GST-FANCLRING; assay type: biochemical; conditions: compound 100 μM, 30 min at 37 °C, Western blot
T5 construct: the RING domain (residues 275–375) of the E3 FANCL (FANCLRING); His6 (N); made in house; host or cells: E. coli Rosetta (DE3)

UBE2D1 = system: T6, UBE2D1; assay: Gel-based ubiquitylation assay (UBE2D1/GST-FANCLRING), ubiquitylated UBE2D1 species; assay type: biochemical; conditions: E2 = UBE2D1, E3 = GST-FANCLRING; 30 min at 37 °C
T6 construct: His6 (N); made in house; host or cells: E. coli Rosetta (DE3)
Procedure: as §1, §9, §2
Cy5 labelling of ubiquitin. […]
Homogeneous Time-Resolved Fluorescence (HTRF) Assay. […]
(v/v) DMSO. […] Signal was measured at λEx 340 nm and λEm 665 nm and 620 nm using a PHERAstar FS plate reader
(BMG Labtech). A ratio was calculated as [λEm(665)/λEm(620)] × 104 for each well and this was used to determine the percent inhibition for test compounds. […]

UBE2T = system: T7, UBE2T; assay: Gel-based ubiquitylation assay (UBE2T/GST-FANCLRING), blot probed for UBE2T; assay type: biochemical; conditions: compound 100 μM; Western blot probed for UBE2T
T7 construct: His6 (N); made in house; host or cells: E. coli Rosetta (DE3)

O=C(CCc1ccco1)NS(=O)(=O)c1cccc2ncccc12 [CU10]
ubiquitylation of GST-RNF8 and UBE2D1 (UBE2D1 / GST-RNF8): appeared to inhibit the ubiquitylation of all species in the assay
autoubiquitylation of UBE1 (UBE1): somewhat impaired the autoubiquitylation of UBE1
ubiquitylation of GST-FANCLRING (UBE2D1 / GST-FANCLRING): essentially abolished the ubiquitylation of GST-FANCLRING
IC50 ([1]; library stock, 10-point dose-response, read-out: Primary screen IC50): 10.9 µM
LE ([1]; ligand efficiency = 1.4(–logIC50)/HAC): 0.35
IC50 ([1]; printed beside the structures in Figure S3, read-out: IC50 (Figure S3)): 2.1 µM
inhibition at 20 µM ([1]; read-out: Primary screen % Inhibition (20 M)): 93.8%
ubiquitylation of GST-FANCLRING (mUb-GST-FANCLRING band) (UBE2T / GST-FANCLRING): no ubiquitylation of FANCLRING was observed
formation of ubiquitylated UBE2D1 species (UBE2D1): prevented the formation of any ubiquitylated UBE2D1 species
ubiquitylation of UBE2T (UBE2T): prevented the ubiquitylation of UBE2T; also recorded: essentially completely inhibited
